According to patent publication US20220280503A1, “COMPOSITIONS OF OPIOID ANTAGONISTS, IMPLANT DEVICES, AND TREATMENT METHODS FOR OPIOID USE DISORDER” (Delpor, Inc., priority 2019, published 2022):
Structures can show the parent of a compound that is named as a salt.

Assay: in vitro release of naltrexone from drug delivery devices (Example 1)
Type: physicochemical
Conditions: porous membrane about 5-20 mm^2 diffusible area, approximately 70% porosity; phosphate buffer, 37° C.
From the text: Naltrexone base was compounded with anisic acid at acid:drug ratios of 0:[…] (molar basis), tableted with polyvinylpyrrolidone as a binder and stearic acid as a lubricant (12% and 2% of the final formulation mass, respectively), and loaded into delivery devices equipped with 0.1 micron polyvinylidene fluoride (DURAPORE®) membranes. In a subset of devices, approximately 75% of the available membrane surface area was blocked to measure the influence of surface area upon output rate. All devices were vacuum back-filled with phosphate buffer and transferred to jars containing a volume (˜100 mL) of the same buffer. The sealed jars were then incubated at 37° C., and small aliquots (˜500 μL) of receiving buffer were withdrawn at selected time points to quantify the released drug by high pressure liquid chromatography (HPLC).

## O=C1CC[C@@]2(O)[C@H]3Cc4ccc(O)c5c4[C@@]2(CCN3CC2CC2)[C@H]1O5 [naltrexone HCl]
  in vitro elution rate of naltrexone from device: over 50 mg/day
